Key:
[1] = for surface tension liquid-gas: Wilhelmy plate method; for mass density: 101 kPa, Liquid, Vibrating tube method
[2] = xn = mol fraction of the nth substance listed; conditions: for surface tension liquid-gas: Wilhelmy plate method; for mass density: 101 kPa, Liquid, Vibrating tube method

CCO [ethanol]
[1]
Conditions | mass density [kg/m3] | surface tension liquid-gas [mN/m]
298.15 K | 784.7 | 22.11
308.15 K | 776.2 | 21.13
318.15 K | 767 | 20.48

CO [methanol] + CCCCn1cc[n+](C)c1.C[C@H](O)C(=O)[O-]
[2], x2 = 0
Conditions | mass density [kg/m3] | surface tension liquid-gas [mN/m]
298.15 K | 786.4 | 22.22
308.15 K | 776.9 | 21.46
318.15 K | 767.2 | 20.46

CCCCO [butan-1-ol]
[1]
Conditions | mass density [kg/m3] | surface tension liquid-gas [mN/m]
298.15 K | 805.7 | 23.89
308.15 K | 798 | 23.46
318.15 K | 790.1 | 22.62

CCCCn1cc[n+](C)c1.C[C@H](O)C(=O)[O-] [1-butyl-3-methylimidazolium L-lactate] + CO
[2]
Conditions | mass density [kg/m3] | surface tension liquid-gas [mN/m]
298.15 K, x1 = 0.0121 | – | 23.38
298.15 K, x1 = 0.0353 | – | 24.72
298.15 K, x1 = 0.0496 | – | 25.63
298.15 K, x1 = 0.0699 | – | 26.72
298.15 K, x1 = 0.0901 | – | 28.06
298.15 K, x1 = 0.0998 | 960.5 | –
298.15 K, x1 = 0.1051 | – | 28.6
298.15 K, x1 = 0.1968 | 1022.4 | –
298.15 K, x1 = 0.1995 | – | 31.01
298.15 K, x1 = 0.3 | 1063.1 | –
298.15 K, x1 = 0.3011 | – | 33.55
298.15 K, x1 = 0.3999 | 1075.9 | –
298.15 K, x1 = 0.4038 | – | 35.7
298.15 K, x1 = 0.5 | 1082.9 | –
298.15 K, x1 = 0.5029 | – | 36.97
298.15 K, x1 = 0.5996 | 1088 | –
298.15 K, x1 = 0.614 | – | 38.06
298.15 K, x1 = 0.7001 | 1090.5 | –
298.15 K, x1 = 0.7037 | – | 38.57
298.15 K, x1 = 0.8002 | 1091.5 | –
298.15 K, x1 = 0.8056 | – | 39.25
298.15 K, x1 = 0.8988 | 1097.8 | –
298.15 K, x1 = 0.9152 | – | 40.89
298.15 K, x1 = 1 | 1111.2 | 42.92
308.15 K, x1 = 0.0115 | – | 22.56
308.15 K, x1 = 0.0346 | – | 24.12
308.15 K, x1 = 0.0544 | – | 25.1
308.15 K, x1 = 0.0702 | – | 26.05
308.15 K, x1 = 0.091 | – | 27.26
308.15 K, x1 = 0.0998 | 956.6 | –
308.15 K, x1 = 0.1058 | – | 28.32
308.15 K, x1 = 0.1968 | 1019.4 | –
308.15 K, x1 = 0.2002 | – | 30.7
308.15 K, x1 = 0.3 | 1057.4 | –
308.15 K, x1 = 0.3033 | – | 33.15
308.15 K, x1 = 0.3999 | 1070.5 | –
308.15 K, x1 = 0.4003 | – | 35.37
308.15 K, x1 = 0.5 | 1077.4 | –
308.15 K, x1 = 0.5032 | – | 36.69
308.15 K, x1 = 0.5913 | – | 37.46
308.15 K, x1 = 0.5996 | 1084.2 | –
308.15 K, x1 = 0.7001 | 1085.4 | –
308.15 K, x1 = 0.7064 | – | 37.66
308.15 K, x1 = 0.791 | – | 38.03
308.15 K, x1 = 0.8002 | 1087.2 | –
308.15 K, x1 = 0.8938 | – | 39.37
308.15 K, x1 = 0.8988 | 1089 | –
308.15 K, x1 = 1 | 1104.2 | 42.37
318.15 K, x1 = 0.0118 | – | 21.91
318.15 K, x1 = 0.0364 | – | 23.48
318.15 K, x1 = 0.0527 | – | 24.57
318.15 K, x1 = 0.0711 | – | 25.49
318.15 K, x1 = 0.0907 | – | 26.91
318.15 K, x1 = 0.0998 | 953.2 | –
318.15 K, x1 = 0.1085 | – | 27.8
318.15 K, x1 = 0.1968 | 1014.3 | –
318.15 K, x1 = 0.2003 | – | 29.96
318.15 K, x1 = 0.3 | 1051.9 | –
318.15 K, x1 = 0.302 | – | 32.56
318.15 K, x1 = 0.3999 | 1066.8 | –
318.15 K, x1 = 0.4072 | – | 35.2
318.15 K, x1 = 0.5 | 1074.7 | –
318.15 K, x1 = 0.5096 | – | 36.52
318.15 K, x1 = 0.5996 | 1077.7 | –
318.15 K, x1 = 0.6103 | – | 36.74
318.15 K, x1 = 0.7001 | 1078 | –
318.15 K, x1 = 0.7054 | – | 36.95
318.15 K, x1 = 0.8002 | 1078.9 | –
318.15 K, x1 = 0.8108 | – | 37.31
318.15 K, x1 = 0.8845 | – | 38.3
318.15 K, x1 = 0.8988 | 1079.9 | –
318.15 K, x1 = 1 | 1097.7 | 42.01

Reference: the NIST ThermoML archive (doi:10.1016/j.jct.2013.04.015)
